# Experimental data taken from publication PMC10734437, “Differential inhibition of intra- and inter-molecular protease cleavages by antiviral compounds” (Journal of Virology, 2023).
# Where two headings read alike, the source gives them in different places. Residues, ends and D or L forms follow the SMILES beside them. *: point of attachment. Cbz = O=C(OCc1ccccc1)*; CH2F = FC*
# Columns and labels:
# [1] = molecular target: poliovirus 3C protease (Poliovirus type 1, UniProt P03300); assay: biochemical; type: biochemical
# Chain of poliovirus 3C protease (P03300 1457-1748 limits assumed): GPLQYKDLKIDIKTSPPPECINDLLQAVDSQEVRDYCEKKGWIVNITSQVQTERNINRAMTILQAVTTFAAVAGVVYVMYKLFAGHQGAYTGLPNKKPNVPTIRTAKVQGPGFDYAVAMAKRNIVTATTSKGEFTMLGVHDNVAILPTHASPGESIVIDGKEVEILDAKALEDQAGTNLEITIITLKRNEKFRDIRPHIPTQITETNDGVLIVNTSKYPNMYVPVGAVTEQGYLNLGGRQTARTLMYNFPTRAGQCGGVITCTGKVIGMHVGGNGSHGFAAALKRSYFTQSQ
# [2] = molecular target: EV-D68 3C protease (Human enterovirus D68, UniProt Q68T42); type: biochemical
# Chain of EV-D68 3C protease (Q68T42 1438-1731 limits assumed): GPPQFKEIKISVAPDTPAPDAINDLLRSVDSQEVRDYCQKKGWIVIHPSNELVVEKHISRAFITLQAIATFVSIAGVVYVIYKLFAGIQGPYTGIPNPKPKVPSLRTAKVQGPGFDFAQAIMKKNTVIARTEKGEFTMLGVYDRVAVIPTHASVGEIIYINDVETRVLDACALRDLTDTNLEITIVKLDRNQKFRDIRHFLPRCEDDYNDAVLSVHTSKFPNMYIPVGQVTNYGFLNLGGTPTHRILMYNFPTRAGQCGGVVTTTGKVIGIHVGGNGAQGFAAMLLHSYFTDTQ
# [3] = system: rhinovirus protease; conditions: cited from earlier work
# [4] = molecular target: T1, poliovirus 2A protease (Poliovirus type 1, UniProt P03300); conditions: read-out: IC50, eIF4G (inter-molecular) cleavage by poliovirus 2A
# Target sequence in this assay (P03300 882-1030 limits assumed): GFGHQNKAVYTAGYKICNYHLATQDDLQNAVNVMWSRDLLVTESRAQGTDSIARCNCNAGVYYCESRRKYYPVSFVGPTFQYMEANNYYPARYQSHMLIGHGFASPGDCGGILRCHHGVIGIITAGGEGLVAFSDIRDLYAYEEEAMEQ
# [5] = molecular target: T1, poliovirus 2A protease
# Target sequence in this assay (P03300 580-1030 limits assumed): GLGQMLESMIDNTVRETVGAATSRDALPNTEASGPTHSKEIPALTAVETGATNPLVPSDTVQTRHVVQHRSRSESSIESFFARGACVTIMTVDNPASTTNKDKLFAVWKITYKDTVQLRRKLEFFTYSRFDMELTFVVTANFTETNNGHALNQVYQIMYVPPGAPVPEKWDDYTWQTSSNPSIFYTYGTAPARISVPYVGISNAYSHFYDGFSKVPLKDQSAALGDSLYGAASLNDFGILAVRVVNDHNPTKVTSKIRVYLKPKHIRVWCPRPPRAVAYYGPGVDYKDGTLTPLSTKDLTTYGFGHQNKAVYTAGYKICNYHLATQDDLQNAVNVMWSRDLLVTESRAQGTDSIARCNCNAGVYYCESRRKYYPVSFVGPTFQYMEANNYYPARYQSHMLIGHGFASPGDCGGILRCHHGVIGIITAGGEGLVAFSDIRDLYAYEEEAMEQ
# [6] = molecular target: T2, EV-D68 2A protease (Human enterovirus D68, UniProt A0A097BW12); assay: biochemical; type: biochemical
# T2 sequence (A0A097BW12 862-1008): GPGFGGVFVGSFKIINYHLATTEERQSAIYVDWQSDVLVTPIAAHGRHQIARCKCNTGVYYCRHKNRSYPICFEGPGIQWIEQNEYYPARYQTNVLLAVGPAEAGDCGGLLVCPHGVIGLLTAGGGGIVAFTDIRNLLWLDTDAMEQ
# [7] = molecular target: T2, EV-D68 2A protease; assay: EV-D68 VP1·2A self-processing (intra-molecular cleavage) in translation extracts; type: biochemical
# [8] = molecular target: T3, EV-D68 2A N84T mutant (Human enterovirus D68, UniProt Q68T42, N945T); assay: EV-D68 VP1·2A N84T (telaprevir resistant mutant) self-processing, pulse chase in translation extracts; type: biochemical
# T3 sequence (Q68T42 553-1008 N945T): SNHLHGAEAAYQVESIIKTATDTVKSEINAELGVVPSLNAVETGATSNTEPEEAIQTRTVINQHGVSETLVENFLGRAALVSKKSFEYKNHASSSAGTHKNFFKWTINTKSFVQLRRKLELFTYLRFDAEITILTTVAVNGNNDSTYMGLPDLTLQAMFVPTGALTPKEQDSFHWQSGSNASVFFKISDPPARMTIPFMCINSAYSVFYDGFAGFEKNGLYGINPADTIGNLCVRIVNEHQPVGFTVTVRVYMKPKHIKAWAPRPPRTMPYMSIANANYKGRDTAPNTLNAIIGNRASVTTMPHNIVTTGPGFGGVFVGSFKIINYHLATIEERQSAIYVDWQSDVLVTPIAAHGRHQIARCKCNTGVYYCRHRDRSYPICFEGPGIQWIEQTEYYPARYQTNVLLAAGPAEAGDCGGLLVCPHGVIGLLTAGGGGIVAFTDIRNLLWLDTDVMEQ
structure (smiles),measurement,setting,value
CCOC(=O)/C=C/[C@H](C[C@@H]1CCNC1=O)NC(=O)[C@@H](CC(=O)[C@@H](NC(=O)c1cc(C)on1)C(C)C)Cc1ccc(F)cc1 [Rupintrivir],"inhibition of poliovirus 3ABC processing, concentration curve",[1],near-complete inhibition
same,"inhibition of self-processing, poliovirus inter-molecular 3ABC processing, pulse chase",[1],~100%
same,IC50,"[1]; IC50, Poliovirus 3ABC (inter-molecular) cleavage",0.76 µM
same,IC50,"[1]; IC50, inter-molecular cleavage of poliovirus 3ABC",~0.76 µM
same,"inhibition of EV-D68 3ABC processing, concentration curve",[2],near-complete inhibition
same,"inhibition of self-processing, EV-D68 intra-molecular 3ABC processing, pulse chase",[2],~100%
CSCCC(NC(=O)C(C)NC(=O)C(NC(=O)OCc1ccccc1)C(C)C)C(=O)CF (stereo not drawn) [zVAM.fmk] (Cbz-Val-Ala-Met-CH2F; configuration not given here),concentration of optimal effects on rhinovirus VP1·2A precursor processing and eIF4G cleavage,[3],200 µM
same,IC50,[4],18.9 µM
same,"inhibition of VP1·2A cis cleavage, pulse chase",[5],significant inhibition
same,IC50,"[5]; read-out: IC50, Poliovirus VP1·2A (intra-molecular) cleavage",1570 µM
same,IC50,"[5]; read-out: IC50, intra-molecular poliovirus VP1·2A cleavage",~1600 µM
CCC[C@H](NC(=O)[C@@H]1[C@H]2CCC[C@H]2CN1C(=O)[C@@H](NC(=O)[C@@H](NC(=O)c1cnccn1)C1CCCCC1)C(C)(C)C)C(=O)C(=O)NC1CC1 [Telaprevir],inhibition of inter-molecular processing of eIF4G,[6],fully inhibited
same,IC50,"[6]; IC50, eIF4G (inter-molecular) cleavage by EV-D68 2A",0.19 µM
same,IC50,"[6]; IC50, inter-molecular cleavage of eIF4G by EV-D68 2A",~0.2 µM
same,"rate of VP1·2A self-processing, pulse chase, WT construct",[7]; 1 µM telaprevir,significantly decreased
same,inhibition of intra-molecular processing of VP1·2A,"[7]; 1-µM telaprevir, maximum concentration testable",20%
same,fold higher IC50 for intra-molecular VP1·2A cleavage than for inter-molecular eIF4G cleavage,[7]; EV-D68 2A,more than 20 fold
same,IC50,"[7]; approximate, translation extracts, drug added at initiation of translation",3.96 µM
same,"N84T mutant self-processing, pulse chase in the presence of telaprevir",[8],not inhibited
